The results in this text go back to PubChem BioAssay (NCI).

Test in all cases: inhibition of tumour cell growth, NCI panel, 48 h
The test system of assay [1] is SF-539 CNS.
Assay [2] relates to COLO 205 colon.
For assay [3], the system named is K-562 leukemia.
The test system of assay [4] is HCT-15 colon.
In assay [5] the test system is KM12 colon.
In assay [6] the test system is OVCAR-5 ovarian.
In assay [7] the test system is SK-MEL-5 melanoma.
Assay [8] has as its system EKVX NSCLC.
Assay [9] deals with SF-295 CNS.
In assay [10] the test system is SF-268 CNS.

Several values for one entry are separate records, joined by “and”; a condition that tells them apart may be missing. Identical values can stand only once.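 Cells were grown in 96-well plates and exposed to each compound for 48 hours at five concentrations; endpoints were interpolated linearly between bracketing concentrations, or set to the highest concentration if not reached. At the GI50, growth is halved. TGI is the concentration that stops growth completely.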

For `COc1ccc2c(c1)[n+]([O-])c(-c1ccc(C)cc1)c(N)[n+]2[O-]`, the TGI in [1] was over 100 µM; in assay [2] it was 36.4 µM; in assay [3] it was over 100 µM; in assay [4], over 100 µM; in assay [5], over 100 µM; in assay [6], over 100 µM. The TGI in [7], in [8] and in assay [9] was over 100 µM throughout.

In the case of `CC(/C=C/c1ccccc1)=N\NC(N)=S`, the TGI in [1] is 94.5 µM; in assay [2], 44.2 µM; in assay [4], over 100 µM; in assay [10], over 100 µM; in [5] it was over 100 µM; in assay [6] it was over 100 µM. The TGI was over 100 µM in [7], over 100 µM in [8] and 61.2 µM in [9].

Turning to `CN[C@@H](C)[C@H](N)c1ccccc1`, the TGI in [1], in assay [2], in [3], in assay [4], in assay [5] and in assay [7] was over 100 µM throughout. Also, the TGI in assay [8] and in assay [9] was over 100 µM in each case.

Regarding `CC(=O)[CH-]C(=O)c1ccccc1.CC(=O)[CH-]C(=O)c1ccccc1.Cl.[O-]c1ccccn1.[O-]c1ccccn1.[Ti+4]`, the GI50 in [1], in assay [3], in assay [4], in assay [10], in [5] and in assay [6] was over 100 µM each time. In addition, the GI50 in [7] is over 100 µM; in assay [8], over 100 µM; in assay [9], 47.6 µM. Also, the TGI in assay [1], in assay [3], in [4], in assay [10], in assay [5] and in assay [6] was over 100 µM in each case. Further, the TGI in assay [7], in assay [8] and in [9] was over 100 µM each time.

As to `CSc1nc(NC2OC(COC(C)=O)C(OC(C)=O)C(OC(C)=O)C2OC(C)=O)c(-c2csc(N)n2)c(=O)n1C` (stereo unspecified), the TGI in assay [1], in [2], in assay [3], in assay [4], in assay [10] and in assay [5] was over 100 µM in each case. The TGI in [6], in [7] and in assay [9] was over 100 µM in each case.

Regarding `COc1ccc2c(Cl)cc(NC(=O)Nc3c(C)cccc3C)nc2c1`, the GI50 is 19.8 µM in assay [1]; 46 µM in assay [2]; 60.7 µM in [3]; 27.3 µM in assay [4]; 39.7 µM in [10]; 35.7 µM in assay [5]. For the same molecule, the GI50 is over 100 µM in [6], 18.1 µM in assay [7] and 4.31 µM in assay [9]. In addition, the TGI in assay [1] is 46.3 µM; in assay [2] it was over 100 µM; in assay [3] it was over 100 µM; in assay [4] it was over 100 µM; in [10] it was over 100 µM; in [5] it was over 100 µM. The TGI was over 100 µM in assay [6], over 100 µM in [7] and 43.9 µM in [9].

As to `Cc1cc(C(=O)NC(CCC(=O)O)C(=O)O)sc1CCC1CNc2nc(N)[nH]c(=O)c2C1` (stereo unspecified), the GI50 was 0.0383 µM and 0.0521 µM in [1]; 0.0341 µM and 0.0509 µM in [2]; under 0.01 µM in assay [3]; 0.0502 µM and 0.33 µM in [4]; 0.044 µM and 0.0721 µM in assay [10]; 0.0383 µM and 0.0937 µM in assay [5]. The GI50 in assay [6] is 0.0383 µM and 0.0723 µM; in assay [7], 0.056 µM and 0.279 µM; in [9], 0.0537 µM and 0.0973 µM. Moreover, the TGI in assay [1], in [2], in [3], in assay [4], in assay [10] and in assay [5] was over 100 µM each time. In addition, the TGI in assay [6], in assay [7] and in [9] was over 100 µM in each case.

Turning to `CC1C[C@]2(C[C@@H](C)C(=O)O2)O[C@@H]2CC3(C)[C@@H]4CCC5C(C)(C)OC(=O)C[C@H]6OO[C@]4(CC[C@]3(C)C12)CC56O` (stereo partly specified), the TGI in [1], in assay [4], in assay [6], in [7] and in assay [9] was over 100 µM each time.

On to `O=[N+]([O-])c1ccc(/C=C/c2csnn2)cc1`, for which the TGI in assay [1], in assay [3], in [4], in assay [10], in assay [5] and in assay [6] was over 100 µM throughout. The TGI in assay [7], in assay [8] and in assay [9] was over 100 µM in each case.

On to `C=C1C2CC(OC(C)=O)C3(C)C(c4ccoc4)OC(=O)[C@@H](O)[C@]13OC1C[C@H](OC(C)=O)C(C)(C)[C@H](CC(=O)OC)[C@]12C` (stereo partly specified), for which the TGI in [1], in [2], in assay [3], in assay [4], in [5] and in [7] was over 100 µM in each case. The TGI in assay [8] and in [9] was over 100 µM each time.

For `CNS(=O)(=O)NN(C)S(=O)(=O)c1ccc2ccccc2c1`, the TGI in assay [1], in assay [2], in assay [3], in [4], in [5] and in [7] was over 100 µM in each case. In addition, the TGI in assay [8] and in assay [9] was over 100 µM in each case.

Regarding `CCOC(=O)[C@H]1Nc2ccc([N+](=O)[O-])cc2C2c3ccccc3CC21` (stereo partly specified), the TGI in [1] is 31.8 µM; in assay [2], over 100 µM; in assay [3], 52.2 µM; in assay [4], 41.5 µM; in assay [10], 38.5 µM; in assay [5] it was over 100 µM. Further, the TGI is 70.4 µM in assay [6], 30.7 µM in assay [7] and 31.2 µM in assay [9].

`Cc1cc(N2CCCC2)nc(NCc2cc(Nc3ccnc4cc(Cl)ccc34)ccc2F)n1`: the GI50 in [1] is 1.55 µM; in assay [2], 0.278 µM; in [4], 1.06 µM; in [10] it was 1.36 µM; in assay [5] it was 1.52 µM; in assay [7] it was 1.01 µM. Further, the GI50 in [9] was 1.16 µM. The TGI was 3.11 µM in assay [1]; 1.43 µM in assay [2]; 2.35 µM in [4]; 3.14 µM in assay [10]; 3.01 µM in [5]; 2.2 µM in assay [7]. This molecule also showed a TGI in assay [9] of 2.53 µM.

As for `CCCCc1n(Cc2ccc3ccccc3c2)cc[n+]1Cc1ccc2ccccc2c1`, the GI50 in assay [1] was 1.4 µM; in assay [6] it was 1.28 µM; in assay [7] it was 0.612 µM; in assay [9], 1.3 µM. Besides, the TGI in assay [1] came out at 2.74 µM; in [6], 2.63 µM; in assay [7], 1.86 µM; in assay [9] it was 2.65 µM.

As to `O=[n+]1c2ccccc2n([O-])c2cc(Cl)ccc21`, the GI50 in assay [1] was 3.5 µM; in [2], 4.65 µM; in assay [3] it was 3.02 µM; in assay [4] it was 2.55 µM; in assay [10] it was 2.99 µM; in assay [5], 5.77 µM. Also, the GI50 in [6] is 15.7 µM; in assay [7], 9.11 µM; in assay [9], 4.32 µM. Also, the TGI in [1] amounted to 11.2 µM; in [2], 18.2 µM; in assay [3], 12.8 µM; in [4] it was 8.59 µM; in assay [10], 10.7 µM; in assay [5], 18.4 µM. For the same molecule, the TGI was 33.5 µM in [6], 21.6 µM in assay [7] and 20.9 µM in assay [9].

Consider `O=C(Nc1cc(Cl)cc(Cl)c1)/C(Cc1nc2ccccc2[nH]c1=O)=N/NC(=O)c1ccncc1`, for which the TGI in [1], in assay [2], in assay [3], in assay [4], in assay [5] and in assay [6] was over 100 µM each time. In addition, the TGI in assay [7], in [8] and in [9] was over 100 µM each time.

With `CCN(CC)CCN(Cc1ccc(F)cc1)c1ccc(CO)c(Cl)c1`, the GI50 is 48.1 µM in assay [1]; 2.2 µM in assay [2]; 10.2 µM in assay [3]; 12.7 µM in [4]; 76.5 µM in assay [10]; 18.8 µM in [5]. The GI50 was 3.25 µM in [6], 16.3 µM in assay [7] and 15.1 µM in assay [9]. In addition, the TGI in assay [1] is over 100 µM; in [2], 5.54 µM; in assay [3], 41.5 µM; in [4], over 100 µM; in assay [10], over 100 µM; in assay [5] it was 75.9 µM. The TGI in [6] was determined as 12.4 µM; in assay [7] it was 30.1 µM; in [9], 49.9 µM.

As to `COc1ccc(/C=C2\CN(Cc3cn(CCNc4ccnc5cc(Cl)ccc45)nn3)C/C(=C\c3ccc(OC)c(OC)c3)C2=O)cc1OC`, the GI50 is 2.58 µM in assay [1]; 1.99 µM in assay [2]; 3.21 µM in assay [3]; 6.87 µM in assay [4]; 3.36 µM in assay [10]; 1.87 µM in assay [5]. For the same molecule, the GI50 was 4.55 µM in [6], 1.72 µM in [7] and 2.41 µM in assay [9]. For the same molecule, the TGI is 8.14 µM in assay [1]; 3.9 µM in assay [2]; over 100 µM in [3]; 38.7 µM in [4]; 21.5 µM in assay [10]; 3.6 µM in [5]. Further, the values for the TGI in assay [6], in assay [7] and in assay [9] were 21.5 µM, 3.75 µM and 6.1 µM, respectively.

Regarding `Cc1[nH]nc2c1N=C(c1ccccc1F)c1cc(C(N)=O)ccc1N2`, the GI50 was 0.621 µM in [1]; 2.3 µM in assay [2]; 1.72 µM in [3]; 4.69 µM in assay [4]; 2.22 µM in assay [10]; 1.32 µM in [5]. Also, the results for the GI50 in [6], in assay [7] and in assay [9] were 9.61 µM, 3.11 µM and 1.28 µM, respectively. For the same molecule, the TGI is 3.54 µM in assay [1]; 6.61 µM in [2]; over 25 µM in assay [3]; over 25 µM in assay [4]; 8.46 µM in [10]; over 16.3 µM in assay [5]. Besides, the results for the TGI in assay [6], in assay [7] and in assay [9] were over 22.3 µM, 9.03 µM and 24.9 µM, respectively.

`C[C@]1(Cn2ccnn2)C(C(=O)O)N2C(=O)CC2S1(=O)=O` (stereo partly specified): the GI50 in assay [1], in [2], in assay [3], in [4], in [10] and in assay [5] was over 100 µM each time. The GI50 in [6], in assay [7] and in [9] was over 100 µM in each case. The TGI in [1], in assay [2], in assay [3], in assay [4], in [10] and in assay [5] was over 100 µM in each case. Besides, the TGI in [6], in assay [7] and in assay [9] was over 100 µM throughout.

Take `COc1cccc2c1C(=O)c1c(O)c3c(c(O)c1C2=O)C[C@@](O)(C(=O)CO)CC3OC1CC(O)C(O)C(C)O1` (stereo partly specified): the TGI amounted to 0.795 µM in assay [1]; 5.51 µM in assay [3]; 5.89 µM in assay [4]; 1.81 µM in [10]; 7.49 µM in assay [5]; 3.66 µM in assay [6]. Also, the TGI was determined as 0.687 µM in assay [7], 7.49 µM in [8] and 1.16 µM in assay [9].

With `O=S1(=O)CCCS(=O)(=O)C(c2ccccc2)=C1c1ccccc1`, the TGI was over 100 µM in [1]; over 100 µM in [3]; over 100 µM in assay [4]; over 100 µM in [10]; 79 µM in assay [5]; over 100 µM in [6]. The TGI in assay [7] and in [8] was over 100 µM throughout.
